Measurements from patent US8592363B2, “ψεrack peptide composition and method for protection against tissue damage due to ischemia” (The Board of Trustees of the Leland Stanford Junior …, priority 2000, dated 2013).

Key:
[1] = tested on: ex vivo rat hearts; assay: Ex vivo administration of ψεRACK prior to ischemia: CPK release in perfusate of Langendorff-perfused hearts; settings: 0.5 μM peptide for 20 minutes prior to 45 minutes global ischemia; 30 minute reperfusion; FIG. 1A
Protocol: Animals were anesthetized as described in Example 1 and their hearts were rapidly removed and cannulated for perfusion on a Langendorff apparatus. Hemodynamic parameters were monitored until stabilized, typically for 10-20 minutes. After equilibration, ψεRACK peptide (SEQ ID NO:2) or a scrambled ψεRACK peptide (SEQ ID NO:4) were delivered to the hearts via the coronary arteries using 0.5 μM of peptide for 20 minutes.
To induce global ischemia, flow to the hearts was interrupted for 45 minutes. The hearts were then reperfused for 30 minutes. During reperfusion, ischemic-induced cell damage was determined by measuring the activity of creatine phosphokinase (absorbance at 520 nm) in the perfusate. […]
Mice or rats were anesthetized with i.p. avertin, and their hearts were rapidly removed and cannulated via the aorta for reperfusion as described in the art (Colbert et al, 1997). […] The left ventricular pressure and real-time derivative (dP/dt) were monitored via a catheter placed in the ventricular apex. […]
To induce global ischemia, flow was interrupted for 45 minutes. […] During reperfusion, ischemia-induced cell damage was determined by measuring the activity of creatine phosphokinase (CPK) (absorbance at 520 nm) in the perfusate using a Sigma kit.

[2] = tested on: pig heart; assay: Left ventricurogram (ejection fraction) in pigs after LAD occlusion; assay type: in vivo
Protocol: In another study, left ventricurogram (LVG) was performed in pigs (n=5) at three time points: (1) before occlusion of left anterior descending artery by balloon catheter (before occlusion); (2) immediately after reperfusion with 5 μM/10 mL of ψεRACK (post ψεRACK); and (3) before sacrifice five days later (5 days post), using 6 Fr. of pig-tail catheter. LVG was recorded by two views, right anterior oblique and left anterior oblique. Ejection fraction (EF), the percent of blood ejected in a beat, during maximum contraction, of the total maximum present in the left ventricle, was analyzed by the software, Plus Plus (Sanders Data Systems), and the averages of two views were evaluated. […] Accordingly, delivery of a ψεRACK peptide in vivo after ischemia is effective to reduce cell and tissue damage, as evidenced by an ejection fraction at least 10% greater than that of untreated cells or tissues.

[3] = tested on: whole rat hearts; assay: Ex vivo administration of ψεRACK after ischemia: CPK release in perfusate during reperfusion; settings: 0.5 μM peptide for first 20 minutes of reperfusion after 45 minutes ischemia; 60 minute period; FIG. 3B
Protocol: In another study performed in support of the invention, ψεRACK was administered to hearts ex vivo after a prolonged ischemic period and was effective to provide protection from ischemic injury. As described in Example 2, whole rat hearts were perfused on a Langendorff apparatus. After a 30 minute equilibration period, global ischemia was induced by stopping fluid flow for 45 minutes. The hearts were then reperfused with or without ψεRACK peptide for 20 minutes followed by 40 minutes perfusion without peptide. During the 60 minutes following ischemia (20 minutes of peptide reperfusion plus 40 minutes perfusion), the CPK activity in the perfusate was analyzed.
Rat hearts were prepared as described in Example 1. After a 30 minute equilibration period, global ischemia was induced by interrupting fluid flow for 45 minutes. The hearts were then reperfused with 0.5 μM of ψεRACK peptide for 20 minutes, followed by 40 minutes of reperfusion without the peptide. As a control, some hearts were left untreated after ischemia. During the 60 minute period following ischemia, ischemia-induced cell damage was determined by monitoring the creatine phosphokinase (CPK) activity (absorbance at 520 nm) in the perfusate collected during reperfusion.

[4] = tested on: pig heart; assay: In vivo administration during LAD balloon occlusion in pigs: infarct area of area at risk; settings: for infarct of area at risk: about 20 μg peptide during first 10 minutes of 30 minute occlusion, hearts analysed five days later, average, p<0.005
Protocol: In another study in support of the invention, the ability of ψεRACK peptide to protect tissue from damage due to an ischemic or hypoxic event was evaluated by administering the peptide in vivo. As detailed in Example 3, ψεRACK peptide (SEQ ID NO:2) or scrambled ψεRACK peptide (SEQ ID NO:4) was administered to adult pigs during the first 10 minutes of a 30 minutes ischemic insult. Five days later, the hearts were analyzed for tissue damage.
Young adult female pigs, 35-40 kg in weight, were anesthetized and a catheter was introduced through the carotid artery into the heart. Using conventional intervention cardiology techniques, a wire was placed through a catheter and into the left anterior descending artery (LAD): A balloon was run over this wire to a site of occlusion where it was then inflated to block blood flow for 30 minutes. During the first 10 minutes of the ischemic insult, either the control scrambled ψεRACK peptide (SEQ ID NO:4, n=5) or the biologically active RACK peptide (SEQ ID NO:2, n=5) was delivered by diffusion through the balloon directly downstream of the occlusion. Approximately 20 μg peptide (˜400 ng per kg body weight) was administered.
After 30 minutes of occlusion, the balloon was removed and pigs were left to recover from surgery. Five days later, the pigs were euthanized and hearts were harvested. After heart removal, the LAD was occluded. With the occlusion in place, Evans Blue dye, which stains all areas not at risk of infarct in blue while leaving all areas with no access to blood flow red, was infused. Hearts were then cut into slices and stained with a tetrazolium red dye which stains all live areas red and infarcted dead tissue in white. Each heart had multiple tissue slices with distinctive areas marking the area at risk for ischemia and the infarcted area. From this the percent infarct per area at risk for each slice and for the entire heart was determined.

[5] = tested on: ex vivo hearts; assay: Functional recovery of ex vivo hearts after global ischemia (left ventricle pressure, dP/dt, perfusion pressure); set-up: species or system Mice or rats; settings: 500 nM peptide prior to 30 minute global ischemia; 30 minute reperfusion
Protocol: In another study in support of the invention, the functional recovery of ex vivo hearts after an ischemic event was evaluated by monitoring, the isovolumic left ventricle pressure (LVP) at a constant pacing (3.3 Hz) and at a constant coronary flow (10 mL/min), as described in Example 1. Prior to the ischemic event, the hearts were treated with 500 nM ψεRACK (SEQ ID NO:2) or with scrambled ψεRACK peptide (SEQ ID NO:4). After the 30 minute global ischemia, the hearts were monitored during a 30 minute reperfusion period.
Mice or rats were anesthetized with i.p. avertin, and their hearts were rapidly removed and cannulated via the aorta for reperfusion as described in the art (Colbert et al, 1997). Care was taken to have the hearts perfused within 90 seconds of removal. The left ventricular pressure and real-time derivative (dP/dt) were monitored via a catheter placed in the ventricular apex. Hemodynamic parameters were archived every 20 seconds throughout the procedure. The hearts were perfused with oxygenated Krebs-Henseleit solution comprised of, in […], NaCl 120; KCl 5.8; NaHCO3 25; NaH2O4 1.2; MgSO4 1.2; CaCl2 1.0; and dextrose 10, pH 7.4 at 37 C.
After a 10-20 minute equilibration period, the hearts were treated with ψεRACK peptide (SEQ ID NO:2) or with scrambled ψεRACK peptide (SEQ ID NO:4) for 20 minutes. […]

[6] = pigs, 5 days post ischemia and treatment

## HDAPIGYD (pseudo-epsilon RACK octapeptide) [ψεRACK, ψεRACK octapeptide, εPKC specific agonist peptide]
[1]
  creatine phosphokinase (CPK) release during reperfusion: close to the control hearts maintained under normoxia conditions
[2]; pigs n=5, 5 μM/10 mL ψεRACK, immediately after reperfusion, FIG. 5
  ejection fraction after occlusion compared to control animals treated with scrambled peptide: higher ejection fraction
[2]; [6]
  ejection fraction compared with that before ischemia: on par with that measured prior to ischemia
  ejection fraction higher than the untreated animals: about 10%
[3]
  lower total CPK release versus untreated hearts: ~2 fold
[4]
  infarct of area at risk: 14.9±6%
[4]; infarct area as percent of area at risk, in grams of cardiac tissue, FIG. 4C
  reduction of percent infarct versus scrambled peptide control: more than 2 fold
[5]
  coronary perfusion pressure: reduced
  elevated LVP end diastolic pressure: reduced

## PDYHDAGI (scrambled pseudo-epsilon RACK octapeptide) [scrambled ψεRACK, scrambled ψεRACK octapeptide, negative control, reference compound]
[1]
  creatine phosphokinase (CPK) release during reperfusion: significant release of CPK
[4]
  infarct of area at risk: 36.5±0.3%
